Measurements from patent publication US7151105B2, “Inhibitors of Hepatitis C virus RNA-dependent RNA polymerase, and compositions and treatments using the same” (Agouron Pharmaceuticals, Inc., priority 2004, dated 2006).

Molecular target: T1, Recombinant HCV polymerase (Hepatitis C virus genotype 1b, UniProt P26663)
T1 construct: Recombinant HCV polymerase was tested for its ability to perform primer/template-directed transcription
Experiment: biochemical
Settings: for IC50: inhibition of polymerase-directed transcription, 30 min at 30° C, 30 nM enzyme, cpm data in triplicate
Summary of the method: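 Primer/template-directed RNA synthesis by 2.5 pmol HCV polymerase on poly(rC)300/biotin-dG12 with 1 μM GTP plus α-32P-GTP, in pH 7.2 Tris buffer with 10 mM MgCl2, for 30 min at 30 °C. Products were filter-captured and counted, with 1% DMSO final. IC50 was fitted from triplicate cpm; percent inhibition was reported where IC50 was impractical.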

T1 sequence (P26663 2420-3010): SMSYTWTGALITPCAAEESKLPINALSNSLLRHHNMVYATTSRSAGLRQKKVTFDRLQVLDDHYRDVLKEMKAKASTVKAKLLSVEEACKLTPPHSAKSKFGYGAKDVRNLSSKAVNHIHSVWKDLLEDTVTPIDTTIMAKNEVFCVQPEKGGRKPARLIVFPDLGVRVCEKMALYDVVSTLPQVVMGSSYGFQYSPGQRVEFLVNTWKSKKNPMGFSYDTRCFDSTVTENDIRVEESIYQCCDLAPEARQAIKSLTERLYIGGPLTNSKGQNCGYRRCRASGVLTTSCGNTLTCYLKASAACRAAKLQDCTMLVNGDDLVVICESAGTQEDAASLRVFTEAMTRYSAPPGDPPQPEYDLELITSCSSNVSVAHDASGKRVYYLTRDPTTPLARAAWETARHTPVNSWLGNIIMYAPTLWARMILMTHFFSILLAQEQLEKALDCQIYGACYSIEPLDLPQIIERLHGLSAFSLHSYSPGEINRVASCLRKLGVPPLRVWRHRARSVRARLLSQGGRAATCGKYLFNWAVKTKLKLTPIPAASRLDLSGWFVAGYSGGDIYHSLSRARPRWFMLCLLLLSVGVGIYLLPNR

| Compound | IC50 | inhibition at 50 µM (read-out: % inh @ 50 uM) |
| --- | --- | --- |
| Cc1cc(C)n2nc(CC3=C(O)CC(CCc4ccc(S(=O)(=O)C(F)(F)F)cc4)(C4CCCC4)OC3=O)nc2n1 (centres unmarked) [A(65)] | 250 nM |  |
| O=C1CC(=O)OC(CCc2ccc(S(=O)(=O)C(F)(F)F)cc2)(C2CCCC2)C1 (centres unmarked) [A(66), 6-Cyclopentyl-6-(2-{4[(trifluoromethyl)sulfonyl]phenyl}ethyl)dihydro-2H-pyran-2,4(3H)-dione] | 31000 nM |  |
| CCc1cc(CCC2(C3CCCC3)CC(=O)CC(=O)O2)ccc1OCCN(C)C(=O)OC(C)(C)C (centres unmarked) [A(67), tert-Butyl 2-{4-[2-(2-cyclopentyl-4,6-dioxotetrahydro-2H-pyran-2-yl)ethyl]-2-ethylphenoxy}ethyl(methyl)carbamate] | 47000 nM |  |
| CCc1cc(CCC2(C3CCCC3)CC(=O)CC(=O)O2)ccc1OCCNC(=O)OC(C)(C)C (centres unmarked) [A(68), tert-Butyl 2-{4-[2-(2-cyclopentyl-4,6-dioxotetrahydro-2H-pyran-2-yl)ethyl]-2-ethylphenoxy}ethylcarbamate] | 12000 nM |  |
| CCc1cc(CCC2(C3CCCC3)CC(O)=C(Cc3nc4nc(C)cc(C)n4n3)C(=O)O2)ccc1OCCN(C)C(=O)OC(C)(C)C (centres unmarked) [A(69), tert-Butyl 2-[4-(2-{2-cyclopentyl-5-[(5,7-dimethyl[1,2,4]triazolo[1,5-a]pyrimidin-2-yl)methyl]-4-hydroxy-6-oxo-3,6-dihydro-2H-pyran-2-yl}ethyl)2-ethylphenoxy]ethyl(methyl)carbamate] | 15 nM |  |
| CCc1cc(CCC2(C3CCCC3)CC(O)=C(Cc3nc4nc(C)cc(C)n4n3)C(=O)O2)ccc1OCCNC(=O)OC(C)(C)C (centres unmarked) [A(70), tert-Butyl 2-[4-(2-{2-cyclopentyl-5-[(5,7-dimethyl[1,2,4]triazolo[1,5-a]pyrimidin-2-yl)methyl]-4-hydroxy-6-oxo-3,6-dihydro-2H-pyran-2-yl}ethyl)-2-ethylphenoxy]ethylcarbamate] | 14 nM |  |
| CCc1cc(CCC2(C3CCCC3)CC(O)=C(Cc3nc4nc(C)cc(C)n4n3)C(=O)O2)ccc1OCCN (centres unmarked) [A(71)] | 9 nM |  |
| CCc1cc(CCC2(C3CCCC3)CC(O)=C(Cc3nc4nc(C)cc(C)n4n3)C(=O)O2)ccc1OCCNC (centres unmarked) [A(72), 6-Cyclopentyl-3-[(5,7-dimethyl[1,2,4]triazolo[1,5-a]pyrimidin-2-yl)methyl]-6-(2-{3-ethyl-4-[2-(methylamino)ethoxy]phenyl}ethyl)-4-hydroxy-5,6-dihydro-2H-pyran-2-one] | 8 nM |  |
| CCc1cc(CCC2(C3CCCC3)CC(=O)CC(=O)O2)c(OC)cc1OCCN(C)C(=O)OC(C)(C)C (centres unmarked) [A(73), tert-Butyl 2-{4-[2-(2-cyclopentyl-4,6-dioxotetrahydro-2H-pyran-2-yl)ethyl]-2-ethyl-5-methoxyphenoxy}ethyl(methyl)carbamate] |  | 19% |
| Cc1cc(C)n2nc(CC3=C(O)CC(CCc4cc(C)c(O)c(CC(F)(F)F)c4)(C4CCCC4)OC3=O)nc2n1 (centres unmarked) [A(76), 6-Cyclopentyl-3-[(5,7-dimethyl[1,2,4]triazolo[1,5-a]pyrimidin-2-yl)methyl]-4-hydroxy-6-{2-[4-hydroxy-3-methyl-5-(2,2,2-trifluoroethyl)phenyl]ethyl}-5,6-dihydro-2H-pyran-2-one] | 5 nM |  |
| CCCOc1cc(O)c(CC(F)(F)F)cc1CCC1(C2CCCC2)CC(O)=C(Cc2nc3nc(C)cc(C)n3n2)C(=O)O1 (centres unmarked) [A(77), 6-Cyclopentyl-3-[(5,7-dimethyl[1,2,4]triazolo[1,5-a]pyrimidin-2-yl)methyl]-4-hydroxy-6-{2-[4-hydroxy-2-propoxy-5-(2,2,2-trifluoroethyl)phenyl]ethyl}-5,6-dihydro-2H-pyran-2-one] | 5 nM |  |
| Cc1cnc2nc(CC3=C(O)CC(CCc4ccc(C(C)(C)C#N)c(C)c4)(C4CCCC4)OC3=O)nn2c1 (centres unmarked) [A(78), 2-[4-(2-{2-Cyclopentyl-4-hydroxy-5-[(6-methyl[1,2,4]triazolo[1,5-a]pyrimidin-2-yl)methyl]-6-oxo-3,6-dihydro-2H-pyran-2-yl}ethyl)-2-methylphenyl]-2-methylpropanenitrile] | 12 nM |  |
| Cc1cnc2nc(CC3=C(O)CC(CCc4cc(F)c(C(C)(C)C#N)cc4O)(C4CCCC4)OC3=O)nn2c1 (centres unmarked) [A(79), 2-[4-(2-{2-Cyclopentyl-4-hydroxy-5-[(6-methyl[1,2,4]triazolo[1,5-a]pyrimidin-2-yl)methyl]-6-oxo-3,6-dihydro-2H-pyran-2-yl}ethyl)-2-fluoro-5-hydroxyphenyl]-2-methylpropanenitrile] | 12 nM |  |
| COc1cc(CO)c(F)cc1CCC1(C2CCCC2)CC(O)=C(Cc2nc3nc(C)cc(C)n3n2)C(=O)O1 (centres unmarked) [A(80), 6-Cyclopentyl-3-[(5,7-dimethyl[1,2,4]triazolo[1,5-a]pyrimidin-2-yl)methyl]-6-{2-[5-fluoro-4-(hydroxymethyl)-2-methoxyphenyl]ethyl}-4-hydroxy-5,6-dihydro-2H-pyran-2-one] | 22 nM |  |
| CCS(=O)(=O)N[C@H](C)c1ccc(CCC2(C3CCCC3)CC(O)=C(Cc3nc4nc(C)cc(C)n4n3)C(=O)O2)cc1 (stereo partly drawn) [A(81), N-{(1R)-1-[4-(2-{2-cyclopentyl-5-[(5,7-dimethyl[1,2,4]triazolo[1.5-a]pyrimidin-2-yl)methyl]-4-hydroxy-6-oxo-3,6-dihydro-2H-pyran-2-yl}ethyl)phenyl]ethyl}ethanesulfonamide] | 120 nM |  |
| Cc1cc(C)n2nc(CC3=C(O)CC(CCc4ccc([C@@H](C)NS(=O)(=O)CC(F)(F)F)cc4)(C4CCCC4)OC3=O)nc2n1 (stereo partly drawn) [A(82), N-{(1R)-1-[4(2-{2-cyclopentyl-5-[(5,7-dimethyl[1,2,4]triazolo[1,5-a]pyrimidin-2-yl)methyl]4-hydroxy-oxo-3,6dihydro-2H-pyran-2-yl}ethyl)phenyl]ethyl}-2,2,2-trifluoroethanesulfonamide] | 65 nM |  |
| Cc1cc(C)n2nc(CC3=C(O)CC(CCc4ccc([C@@H](C)NS(C)(=O)=O)cc4)(C4CCCC4)OC3=O)nc2n1 (some centres unmarked) [A(83)] | 38 nM |  |
| Cc1nc(CC2=C(O)CC(CCc3ccc(C(C)(C)C#N)c(F)c3)(C3CCCC3)OC2=O)n(C)n1 (centres unmarked) [A(84), 2-[4-(2-{2-Cyclopentyl-5-[(1,3-dimethyl-1H-1,2,4-triazol-5-yl)methyl]-4-hydroxy-6-oxo-3,6-dihydro-2H-pyran-2-yl}ethyl)-2-fluorophenyl]-2-methylpropanenitrile] | 72 nM |  |
| CCn1cc(CC2=C(O)CC(CCc3ccc(C(C)(C)C#N)c(F)c3)(C3CCCC3)OC2=O)cn1 (centres unmarked) [A(85), 2-[4-(2-{2-Cyclopentyl-5-[(1-ethyl-1H-pyrazol-4-yl)methyl]-4-hydroxy-6-oxo-3,6-dihydro-2H-pyran-2-yl}ethyl)-2-fluorophenyl]-2-methylpropanenitrile] | 83 nM |  |
| Cn1cc(CC2=C(O)CC(CCc3ccc(C(C)(C)C#N)c(F)c3)(C3CCCC3)OC2=O)cn1 (centres unmarked) [A(86), 2-[4(2-{2-Cyclopentyl-hydroxy-5[(1-methyl-1H-pyrazol-4-yl)methyl]-6-oxo-3,6-dihydro-2H-pyran-2-yl}ethyl)-2-fluorophenyl]-2-methylpropanenitrile] | 86 nM |  |
| C[C@@H](NS(=O)(=O)CC(F)(F)F)c1ccc(CCC2(C3CCCC3)CC(=O)CC(=O)O2)cc1 (stereo partly drawn) [A(88), N-((1R)-1-{4-[2-(2-cyclopentyl-4,6-dioxotetrahydro-2H-pyran-2-yl)ethyl]phenyl}ethyl)-2,2,2-trifluoroethanesulfonamide] | 27000 nM |  |
| Cc1nn(C)c(C)c1CC1=C(O)CC(CCc2ccc(C(C)(C)C#N)c(F)c2)(C2CCCC2)OC1=O (centres unmarked) [A(89)] | 9 nM |  |
| C[C@@H](NC(=O)OC(C)(C)C)c1ccc(CCC2(C3CCCC3)CC(=O)CC(=O)O2)cc1 (some centres unmarked) [A(90)] | 43000 nM |  |
| Cc1cc(C)n2nc(CC3=C(O)CC(CCc4ccc([C@@H](C)NC(=O)OC(C)(C)C)cc4)(C4CCCC4)OC3=O)nc2n1 (stereo partly drawn) [A(91), tert-Butyl(1R)-1-[4-(2-{2-cyclopentyl-5-[(5,7-dimethyl[1,2,4]triazolo[1,5-a]pyrimidin-2-yl)methyl]-4-hydroxy-6-oxo-3,6-dihydro-2H-pyran-2-yl}ethyl)phenyl]ethylcarbamate] | 160 nM |  |
| Cc1cc(C)n2nc(CC3=C(O)CC(CCc4ccc([C@@H](C)N)cc4)(C4CCCC4)OC3=O)nc2n1 (stereo partly drawn) [A(92), 6-(2-{4-[(1R)-1-Aminoethyl]phenyl}ethyl)-6-cyclopentyl-3-[(5,7-dimethyl[1,2,4]triazolo[1,5-a]pyrimidin-2-yl)methyl]-hydroxy-5,6-dihydro-2H-pyran-2-one] | 300 nM |  |
| Cc1cc(C)n2nc(CC3=C(O)CC(CCc4ccc(C5(C#N)CC5)cc4)(C4CCCC4)OC3=O)nc2n1 (centres unmarked) [A(93), 1-[4(2-{2-Cyclopentyl-5-[(5,7-dimethyl[1,2,4]triazolo[1,5-a]pyrimidin-2-yl)methyl]-4-hydroxy-6-oxo-3,6-dihydro-2H-pyran-2-yl}ethyl)phenyl]cyclopropanecarbonitrile] | 6 nM |  |
| Cc1c(CC2=C(O)CC(CCc3ccc(C(C)(C)C#N)c(F)c3)(C3CCCC3)OC2=O)cnn1C (centres unmarked) [A(94), 2-[4-(2-{2-Cyclopentyl-5-[(1,5-dimethyl-1H-pyrazol-4-yl)methyl]-4-hydroxy-6-oxo-3,6dihydro-2H-pyran-2-yl}ethyl)-2-fluorophenyl]-2-methylpropanenitrile] | 27 nM |  |
| CCn1cc(CC2=C(O)CC(CCc3ccc(C(C)(C)C#N)c(F)c3)(C3CCCC3)OC2=O)c(C)n1 (centres unmarked) [A(95), 2-[4-(2-{2-Cyclopentyl-5-[(1-ethyl-3-methyl-1H-pyrazol-4-yl)methyl]-4-hydroxy-6-oxo-3,6-dihydro-2H-pyran-2-yl}ethyl)-2-fluorophenyl]-2-methylpropanenitrile] | 40 nM |  |
| Cc1nn(C)c(Cl)c1CC1=C(O)CC(CCc2ccc(C(C)(C)C#N)c(F)c2)(C2CCCC2)OC1=O (centres unmarked) [A(96), 2-[4-(2-{5-[(5-Chloro-1,3-dimethyl-1H-pyrazol-4-yl)methyl]-2-cyclopentyl-4-hydroxy-6-oxo-3,6-dihydro-2H-pyran-2-yl}ethyl)-2-fluorophenyl]-2-methylpropanenitrile] | 6 nM |  |
